pIC50: −log10 of the molar value.
biological target: Human TASK-1 channels (Homo sapiens (Human), UniProt O14649); assay: Determination of the activity on the TASK-1 channel in Xenopus oocytes (two-microelectrode voltage clamp); format: cell-based; conditions: compound concentration 5 μM
Method: Determination of the activity on the TASK-1 channel in Xenopus oocytes
Human TASK-1 channels were expressed in Xenopus oocytes. For this purpose, oocytes were isolated from Xenopus laevis and defoliculated. Subsequently, TASK-1-encoding RNA synthesized in vitro was injected into the oocytes. After two days of TASK-1 protein expression, TASK-1 currents were measured by two-microelectrode voltage clamp. Data were acquired and analyzed using a TEC-10cx amplifier (NPI Electronic, Tamm, Germany) connected to an ITC-16 interface (Instrutech Corp., Long island, USA) and Pulse software (HEKA Elektronik, Lambrecht, Germany). Oocytes were clamped to −90 mV and TASK-1 mediated currents were measured during 500 ms voltage pulses to 40 mV. Oocytes were continuously superfused with ND96 buffer containing 98 mM sodium chloride, 2 mM potassium chloride, 1.8 mM calcium chloride, 1 mM magnesium chloride, 5 mM 4-(2-hydroxyethyl)-piperazine-1-ethanesulfonic acid (HEPES: pH adjusted to 7.4 with sodium hydroxide). All experiments were performed at room temperature. Test compounds were consecutively added to the bath solution at rising concentrations. Compound effects were calculated as the percentage inhibition of TASK-1 control current before compound addition. IC50 values were obtained by fitting the data to the general dose-response equation.

Human TASK-1 channels, sequence (O14649 whole entry): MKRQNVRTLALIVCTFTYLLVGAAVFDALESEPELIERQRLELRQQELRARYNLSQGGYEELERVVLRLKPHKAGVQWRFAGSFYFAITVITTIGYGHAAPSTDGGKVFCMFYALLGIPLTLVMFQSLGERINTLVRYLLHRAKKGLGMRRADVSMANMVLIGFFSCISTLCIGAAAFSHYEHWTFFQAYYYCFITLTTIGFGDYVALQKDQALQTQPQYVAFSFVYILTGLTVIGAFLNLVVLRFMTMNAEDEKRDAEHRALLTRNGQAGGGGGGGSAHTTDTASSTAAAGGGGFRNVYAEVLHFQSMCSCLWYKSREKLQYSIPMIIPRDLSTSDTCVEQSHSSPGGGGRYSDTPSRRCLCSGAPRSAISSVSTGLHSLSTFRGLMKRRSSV

inhibition at 5 µM [%]	Compound
91	CC[C@@H](NC(=O)c1cc(C(=O)NCc2ccc3cc[nH]c3c2)n2c1COCC2)c1ccccc1 [16je, 3,4-Dihydro-1H-pyrrolo[2,1-c][1,4]oxazine-6,8-dicarboxylic acid 6-[(1H-indol-6-ylmethyl)-amide] 8-[((R)-1-phenyl-propyl)-amide]]

same assay, conditions: human TASK-1 expressed in Xenopus oocytes, room temperature; read-out: IC50 value for TASK-1 inhibition

pIC50	Compound
6.37	CC[C@@H](NC(=O)c1cc(C(=O)NC(C)c2cnccn2)c2n1CCOC2)c1ccc(F)cc1F (single isomer, unassigned; diastereomer 1) [16pl]
6.15	CC(NC(=O)c1cc(C(=O)N[C@@H](c2ccc(F)cc2)C(C)C)n2c1COCC2)c1cnccn1 (single isomer, unassigned; diastereomer 1) [16lq]
6.12	CCC(NC(=O)c1cc(C(=O)N[C@H](CC)c2ccccc2)c2n1CCOC2)c1cnc(OC)nc1 (single isomer, unassigned; diastereomer 2) [16hv]
6.70	CC[C@@H](NC(=O)c1cc(C(=O)N2CCC[C@@H]2C)n2c1COCC2)c1ccc2c(c1)OC(F)(F)O2 [16bz, 6-((S)-2-Methyl-pyrrolidine-1-carbonyl)-3,4-dihydro-1H-pyrrolo[2,1-c][1,4]oxazine-8-carboxylic acid [(R)-1-(2,2-difluoro-benzo[1,3]dioxol-5-yl)-propyl]-amide]
6.13	CCC(NC(=O)c1cc(C(=O)N2CCC[C@@H]2C)n2c1COCC2)c1ccc(S(F)(F)(F)(F)F)cc1 (some centres unmarked) [16bf]
6.34	CC[C@@H](NC(=O)c1cc(C(=O)NCc2cncc(F)c2)n2c1CCCC2)c1ccccc1 [16nb, 5,6,7,8-Tetrahydro-indolizine-1,3-dicarboxylic acid 3-[(5-fluoro-pyridin-3-ylmethyl)-amide] 1-[((R)-1-phenyl-propyl)-amide]]
6.60	3,4-Dihydro-1H-pyrrolo[2,1-c][1,4]oxazine-6,8-dicarboxylic acid 8-{[(R)- 1-(6-rnethoxy-pyridin-3-yl)-propy]-amide} 6-[((R)-1-phenyl-propyl)- amide] [16jo]
6.55	CCC(NC(=O)c1cc(C(=O)N2CCC[C@@H]2C)n2c1COCC2)c1ncc(C(F)(F)F)s1 (single isomer, unassigned; diastereomer 2) [16ce]
6.68	5,6,7,8-Tetrahydro-indolizine-1,3-dicarboxylic acid 3-[(3,5-dimethyl- isoxazol-4-yl)-amide] 1-[((R)-1-phenyl-propyl)-amide] [16nd]
5.96	CC[C@@H](NC(=O)c1cc(C(=O)NC(C)c2cnccn2)n2c1COCC2)c1ccccc1 (single isomer, unassigned; diastereomer 1) [16if]
6.72	CC[C@H](NC(=O)c1cc(C(=O)N[C@H](C)c2ccc(F)cc2)n2c1COCC2)c1cnc(OC)cn1 [16dv, 3,4-Dihydro-1H-pyrrolo[2,1-c][1,4]oxazine-6,8-dicarboxylic acid 6-{[(R)-1-(4-fluoro-phenyl)-ethyl]-amide} 8-{[(S)-1-(5-methoxy-pyrazin-2-yl)-propyl]-amide}]
5.54	CC[C@@H](NC(=O)c1cc(C(=O)NC(C)c2cnccn2)c2n1CCOC2)c1ccccc1 (single isomer, unassigned; diastereomer 1) [16jw]

Compound	pIC50
3,4-Dihydro-1H-pyrrolo[2,1-c][1,4]oxazine-6,8-dicarboxylic acid 8-[((R)- 1-phenyl-propyl)-amide] 6-{[(R)-1-(5-trifiuoromethyl-pyridin-3-yl)- propyl]-amide} [16hn]	6.16
